Legend:
[1] = Half-life of model acyl hydrazones in a simulated lysosomal environment (pH 4.5); type: physicochemical; details: simulated lysosomal environment (acidic buffer)
Source text: Ranging from the intracellularly readily cleavable linkers such as the acyl hydrazones to the relatively stable non-cleavable linkers, having the ability to tune the rate of release of the payload and to improve plasma stability provides opportunities not only to target a greater variety of diseased cells, but also to design agents tailored to achieve a better therapeutic window. Towards the goal of developing enhanced control of ADC linker stability, several model heterocyclic acyl hydrazones whose lability is modulated either by steric or stereoelectronic effects have been prepared.
Towards the goal developing enhanced control of ADC linker stability, several model cyclic acyl hydrazones whose lability is modulated by different substitutions have been prepared. Exemplary acyl hydrazones containing a substituted phenyl group adjacent to the imine carbon have been synthesized. […] Analogues of the heterocyclic linker compounds in Table 1 have been incorporated into linkers, using a similar strategy as employed in the linker synthesis in Mylotarg, as described in greater detail herein below

[2] = test system: SKOV3 ovarian cells; experiment: Cytotoxicity against SKOV3 ovarian cancer cells (ATP content, CellTiter-Glo); type: cell-based; details: DAR ratio 3.39 (Synagis-SMCC-DM1), 3.50 (Trastuzumab-SMCC-DM1), 6.59 (IIIa), 6.99 (IIIc)
Procedure: SKOV3 ovarian cells are incubated with the effectors for a period corresponding to 2 to 3 times their estimated doubling time and the amount of viable cells is determine by measuring ATP content in the wells. […] All ADCs are diluted in DPBS to 6× the highest concentration tested, followed by 10 3-fold serial dilutions in DPBS for a total of 11 concentration points. Each point is added to triplicate wells. DPBS is added in wells to measure the maximum growth. Cells are diluted at their appropriate seeding density (ranging from 150 to 1000 cells per well) in complete media supplemented with glutamine 2 mM, serum and antibiotic cocktail. They are distributed in white, opaque bottom, tissue-culture treated 384 well plates and incubated for 24 hrs at 37° C.+5% CO2. […] Total ATP is measured using CellTiter-Glo reagent from Promega as recommended by the supplier. […] Signal output is measured on a luminescence plate reader (envision, Perkin Elmer) set at an integration time of 0.1 sec. […]
Each concentration point (S) is normalized to the negative control wells (NC) and expressed as % survival (NC-S/NC×100). Potency (IC50) and efficacy are calculated from a non-linear curve fit of the points versus log of the concentrations without constrain on the slope. Refined data are analysed using Prism software.

CC(=O)N/N=C1\CCOc2ccc(F)cc21 [E]
half-life [1]: 2.32 h

Synagis-SMCC-DM1: negative control ADC
IC50 [2]: 9.64 nM

Reference: patent US11850287B2, “Heterocyclic acyl hydrazone linkers, methods and uses thereof” (Ontario Institute for Cancer Research (OICR), priority 2017, dated 2023)
